From patent publication US9023844B2, “Heterocyclylpyri (mi) dinylpyrazole as fungicidals” (Bayer Intellectual Property GmbH, priority 2011, dated 2015)
Where two headings read alike, the source gives them in different places.

Assays:
[1] = Determination of log P values by HPLC on a reverse phase column (C18), EEC-Directive 79/831 Annex V.A8 (Methods A, B, C); format: physicochemical; conditions: for chromatographic logP: reverse phase C18 HPLC column
Description: (§1) Note on the determination of the log P values and mass detection: The stated log P values were determined in accordance with EEC-Directive 79/831 Annex V.A8 by HPLC (High Performance Liquid Chromatography) on a reverse phase column (C18). Agilent 1100 LC system; 50*4.6 Zorbax Eclipse Plus C18 1.8 micron; eluent A: acetonitrile (0.1% formic acid); eluent B: water (0.09% formic acid); linear gradient from 10% acetonitrile to 95% acetonitrile in 4.25 mins, then 95% acetonitrile for a further 1.25 mins; oven temperature 55° C.; flow rate: 2.0 mL/min. The mass detection was effected with an Agilend MSD system.
as §1, with “HP1100;” for “Agilent 1100 LC system;”, “(0.08%” for “(0.09%”, “5%” for “10%”, “1.70 min,” for “4.25 mins,”, “1.00 min;” for “1.25 mins;”, “the Micronass ZQ2000 mass detector from Waters.” for “an Agilend MSD system.”
Note on the determination of the log P values and mass detection: The stated log P values were determined in accordance with EEC-Directive 79/831 Annex V.A8 by UPLC (Ultra Performance Liquid Chromatography) on a reverse phase column (C18). HP1100; 50*2.1 Zorbax Eclipse Plus C18 1.8 micron; eluent A: acetonitrile (0.09% formic acid); eluent B: water (0.1% formic acid); linear gradient from 10% A to 95% A in 3.25 min; oven temperature 40° C.; flow rate: 0.8 mL/min. The mass detection was effected with the LCT Premier or SQD mass detector from Waters.

Uromyces appendiculatus = experiment: Example B: Uromyces test (beans) / preventive; format: in vivo; conditions: in vivo
Pyrenophora teres = experiment: Example D: Pyrenophora test (barley) / preventive; format: in vivo
Puccinia recondita = experiment: Example E: Puccinia test (wheat) / preventive; format: in vivo; conditions: in vivo
Pyricularia oryzae = format: in vivo
[2] = Method B (HPLC, reverse phase C18)
[3] = pH 2.7, values in the synthesis examples, HPLC, reverse phase C18, read-out: log P (pH 2.7)
[4] = pH 2.3, intermediates of formula [II], HPLC, reverse phase C18, read-out: LogP (pH 2.3)
[5] = pH 2.3, intermediates of formula [IV] and [XXXVII], HPLC, reverse phase C18, read-out: LogP (pH 2.3)
[6] = pH 2.3, intermediates of formula [VI], HPLC, reverse phase C18, read-out: LogP (pH 2.3)

Compound	chromatographic logP [1, 3]	chromatographic logP [1, 5]	other results
O=C(CCc1ccccc1)Nc1cc(-c2c(-c3ccccc3)nn3c2OCCC3)ccn1 [Example 15]	–	–	LogP [1, 2]: 2.04; efficacy (Uromyces appendiculatus): 83%; efficacy (Pyrenophora teres; in vivo): 95%; efficacy (Puccinia recondita): 95%; efficacy (Pyricularia oryzae; in vivo): 94%
O=C(CCc1ccccc1)Nc1cc(-c2c(-c3ccc(F)cc3F)nn3c2OCCC3)ccn1 [Example 44]	–	–	LogP [1, 2]: 2.23; efficacy (Uromyces appendiculatus): 94%; efficacy (Puccinia recondita): 95%; efficacy (Pyricularia oryzae; in vivo): 78%
CC(=O)Nc1cc(-c2c(-c3ccc(F)cc3)nn3c2NCCC3)ccn1 [Example 59, N-{4-[2-(4-Fluorophenyl)-4,5,6,7-tetrahydropyrazolo[1,5-a]pyrimidin-3-yl]pyridin-2-yl}acetamide]	1.48	–	chromatographic logP ([1]; Method C (HPLC, reverse phase C18), read-out: LogP): 1.48; efficacy (Pyrenophora teres; 500 ppm of active ingredient, barley, preventive spray, evaluated 7-9 days after inoculation): 80%; efficacy (Pyricularia oryzae; 500 ppm of active ingredient, rice, preventive spray, evaluated 7 days after inoculation): 70%
CC(=O)Nc1cc(-c2c(-c3ccsc3)nn3c2OC[Si](C)(C)C3)ccn1 [Example 96]	–	–	LogP ([1]; Method C (HPLC, reverse phase C18)): 1.62; efficacy (Pyrenophora teres; in vivo): 95%; efficacy (Pyricularia oryzae; in vivo): 70%
Nc1cc(-c2c(-c3ccccc3)nn3cccnc23)ccn1 [[II-a-1], 4-(2-Phenylpyrazolo[1,5-a]pyrimidin-3-yl)pyridin-2-amine]	0.98	–	chromatographic logP [1, 4]: 0.98
Nc1cc(-c2c(-c3ccccc3)nn3c2NCCC3)ccn1 [[II-b-1], 4-(2-Phenyl-4,5,6,7-tetrahydropyrazolo[1,5-a]pyrimidin-3-yl)pyridin-2-amine]	1.05	–	chromatographic logP [1, 4]: 1.05
CC1CCOc2c(B3OC(C)(C)C(C)(C)O3)c(-c3ccc(F)cc3)nn21 (stereo not drawn) [[III-1], 2-(4-fluorophenyl)-7-methyl-3-(4,4,5,5-tetramethyl-1,3,2-dioxaborolan-2-yl)-6,7-dihydro-5H-pyrazolo[5,1-b][1,3]oxazine]	3.5	–	–
Brc1c(-c2ccccc2)nn2c1OCCC2 [[IV-1], 3-bromo-2-phenyl-6,7-dihydro-5H-pyrazolo[5,1-b][1,3]oxazine]	2.66	2.66	–
Fc1ccc(-c2nn3c(c2Br)OCCC3)cc1 [[IV-2], 3-bromo-2-(4-fluorophenyl)-6,7-dihydro-5H-pyrazolo[5,1-b][1,3]oxazine]	2.86	2.86	–
Fc1ccc(-c2nn3c(c2Br)OCCC3)c(F)c1 [[IV-3], 3-bromo-2-(2,4-difluorophenyl)-6,7-dihydro-5H-pyrazolo[5,1-b][1,3]oxazine]	2.7	2.7	–
Fc1ccc(-c2nn3c(c2Br)OCC3)cc1 [[IV-4], 7-bromo-6-(4-fluorophenyl)-2,3-dihydropyrazolo[5,1-b][1,3]oxazole]	2.69	2.69	–
C[Si]1(C)COc2c(Br)c(-c3ccc(F)cc3)nn2C1 [[IV-5], 8-bromo-7-(4-fluorophenyl)-3,3-dimethyl-3,4-dihydro-2H-pyrazolo[5,1-b][1,3,5]oxazasiline]	3.83	3.83	–
CC1CCOc2c(Br)c(-c3ccc(F)cc3)nn21 (stereo not drawn) [[IV-6], 3-bromo-2-(4-fluorophenyl)-7-methyl-6,7-dihydro-5H-pyrazolo[5,1-b][1,3]oxazine]	3.36	3.36	–
Fc1ccc(-c2nn3c(c2Br)OCC(F)(F)C3)cc1 [[IV-7], 3-bromo-6,6-difluoro-2-(4-fluorophenyl)-6,7-dihydro-5H-pyrazolo[5,1-b][1,3]oxazine]	3.3	3.3	–
CC1Oc2c(Br)c(-c3ccc(F)cc3)nn2C1C (stereo not drawn) [[IV-8], 7-bromo-6-(4-fluorophenyl)-2,3-dimethyl-2,3-dihydropyrazolo[5,1-b][1,3]oxazole]	–	3.39	chromatographic logP ([1]; pH 2.7, major isomer of the diastereoisomer mixture, read-out: Log P (pH 2.7), major isomer): 3.39; chromatographic logP ([1]; pH 2.7, minor isomer of the diastereoisomer mixture, read-out: Log P (pH 2.7), minor isomer): 3.46
CC1(C)COc2c(Br)c(-c3ccc(F)cc3)nn2C1 [[IV-10], 3-bromo-2-(4-fluorophenyl)-6,6-dimethyl-6,7-dihydro-5H-pyrazolo[5,1-b][1,3]oxazine]	3.63	3.63	–
CC1(C#N)COc2c(Br)c(-c3ccc(F)cc3)nn2C1 (stereo not drawn) [[IV-11], 3-bromo-2-(4-fluorophenyl)-6-methyl-6,7-dihydro-5H-pyrazolo[5,1-b][1,3]oxazine-6-carbonitrile]	2.94	2.94	–
C[Si]1(C)COc2c(Br)c(-c3cccs3)nn2C1 [[IV-12], 8-bromo-3,3-dimethyl-7-(2-thienyl)-3,4-dihydro-2H-pyrazolo[5,1-b][1,3,5]oxazasiline]	3.58	3.58	–

Compound	chromatographic logP [1, 3]	chromatographic logP [1, 5]	other results
Cc1coc2c(Br)c(-c3ccc(F)cc3)nn12 [[IV-a-1], 7-bromo-6-(4-fluorophenyl)-3-methylpyrazolo[5,1-b][1,3]oxazole]	3.56	3.56	–
CCc1coc2c(Br)c(-c3ccc(F)cc3)nn12 [[IV-a-2], 7-bromo-3-ethyl-6-(4-fluorophenyl)pyrazolo[5,1-b][1,3]oxazole]	4.18	4.18	–
Fc1ccc(-c2nn3ccoc3c2Br)cc1 [[IV-a-3], 7-bromo-6-(4-fluorophenyl)pyrazolo[5,1-b][1,3]oxazole]	3.07	3.07	–
Brc1c(-c2ccccc2)nn2ccoc12 [[IV-a-4], 7-bromo-6-phenylpyrazolo[5,1-b][1,3]oxazole]	2.91	2.91	–
c1ccc(-c2cc3n(n2)CCCO3)cc1 [[VI-1], 2-phenyl-6,7-dihydro-5H-pyrazolo[5,1-b][1,3]oxazine]	2.04	–	chromatographic logP [1, 6]: 2.04
Fc1ccc(-c2cc3n(n2)CCCO3)cc1 [[VI-2], 2-(4-fluorophenyl)-6,7-dihydro-5H-pyrazolo[5,1-b][1,3]oxazine]	2.18	–	chromatographic logP [1, 6]: 2.18
Fc1ccc(-c2cc3n(n2)CCCO3)c(F)c1 [[VI-3], 2-(2,4-difluorophenyl)-6,7-dihydro-5H-pyrazolo[5,1-b][1,3]oxazine]	2.38	–	chromatographic logP [1, 6]: 2.38
CC1CCOc2cc(-c3ccc(F)cc3)nn21 (stereo not drawn) [[VI-4], 2-(4-fluorophenyl)-7-methyl-6,7-dihydro-5H-pyrazolo[5,1-b][1,3]oxazine]	2.65	–	chromatographic logP [1, 6]: 2.65
C[Si]1(C)COc2cc(-c3ccc(F)cc3)nn2C1 [[VI-5], 7-(4-fluorophenyl)-3,3-dimethyl-3,4-dihydro-2H-pyrazolo[5,1-b][1,3,5]oxazasiline]	3.11	–	chromatographic logP [1, 6]: 3.11
Fc1ccc(-c2cc3n(n2)CCS3)cc1 [[VI-6], 6-(4-fluorophenyl)-2,3-dihydropyrazolo[5,1-b][1,3]thiazole]	2.53	–	chromatographic logP [1, 6]: 2.53
CC1(C)COc2cc(-c3ccc(F)cc3)nn2C1 [[VI-10], 2-(4-fluorophenyl)-6,6-dimethyl-6,7-dihydro-5H-pyrazolo[5,1-b][1,3]oxazine]	2.96	–	chromatographic logP [1, 6]: 2.96
CC1(C#N)COc2cc(-c3ccc(F)cc3)nn2C1 (stereo not drawn) [[VI-11], 2-(4-fluorophenyl)-6-methyl-6,7-dihydro-5H-pyrazolo[5,1-b][1,3]oxazine-6-carbonitrile]	2.39	–	chromatographic logP [1, 6]: 2.39
O=c1cc(-c2ccc(F)cc2)[nH][nH]1 [[VII-2], 3-(4-fluorophenyl)-1H-pyrazol-5-ol]	1.11	–	–
Oc1cc(-c2ccc(F)cc2F)n[nH]1 [[VII-3], 3-(2,4-difluorophenyl)-1H-pyrazol-5-ol]	1.25	–	–
Brc1c(-c2ccccc2)nn2cccnc12 [[XXXVII-1], 3-Bromo-2-phenylpyrazolo[1,5-a]pyrimidine]	2.63	2.63	–
Fc1ccc(-c2nn3cccnc3c2Br)cc1 [[XXXVII-2], 3-Bromo-2-(4-fluorophenyl)pyrazolo[1,5-a]pyrimidine]	2.8	2.8	–
Fc1ccc(-c2cc3ncccn3n2)cc1 [[XXXVIII-1], 2-(4-Fluorophenyl)pyrazolo[1,5-a]pyrimidine]	2.17	–	–
